# US20250090626A1, “NEW PEPTIDE AND USES THEREOF” (Neo Cremar Co., Ltd., priority 2021, published 2025)
# Experiments:
# Assay type in all cases: cell-based, mouse
# C2C12 cells [1] = assay: C2C12 cell proliferation (MTT method)
# Protocol: C2C12 cells, a mouse myoblast line, were cultured in Dulbecco's Modified Eagle's Medium (DMEM)+10% fetal bovine serum (FBS)+1% penicillin/streptomycin (P/S). To validate the effect of MIF peptide, C2C12 cells (2×10^3 cells/ml) were placed in a 12 well cell culture dish and attached for 24 hours, and MIF peptide (1000 nM) was treated for 1 day to observe cell proliferation by MTT method. The medium was replaced every 2 days, and the cells were cultured at 37° C.
# To validate cell proliferation, the culture medium of the cells was removed, the cells were washed with DMEM, 500 μl of MTT reagent (0.5 mg/ml) dissolved in phosphate buffered saline (PBS) was added to each well, and the cells were left at 37° C. for 1 hour. The reaction solution was removed, and 1000 μl of DMSO was added to each well. Purple formazan crystals were completely dissolved in DMSO, and the absorbance was measured at 540 nm.
# C2C12 cells [2] = assay: Myodifferentiation, Giemsa staining, root canal formation and fusion index
# Protocol: When C2C12 cells were 70% grown, media were replaced with myodifferentiation medium added with MSTN protein (1 ng), Ac-MIF1 (1000 nM), and Ac-MIF1 (1000 nM)+MSTN protein (1 ng) from proliferation medium, followed by culture for 3 days.
# When the cells grew more than 70% for differentiation of myoblasts into myocytes, they were cultured for 3 days by replacing with a differentiation medium (DMEM+2% FBS+1% P/S). The medium was replaced once daily, and the cells were cultured at 37° C.
# The cell medium was removed, and the cells were washed with PBS. After washing, a methanol:PBS reagent in a 1:1 volume ratio was treated, followed by fixation for 2 minutes. Additionally, after a methanol:PBS reagent in a 2:1 volume ratio was added, fixation was followed for additional 2 minutes. After 2 minutes, 0.04% Giemsa reagent was added, and then the cells were left for 30 minutes, washed with PBS after 30 minutes, and observed under a microscope, with 3 photographs taken for each cell (300×). In the photographs taken, the number of fused nuclei in the root canal cells was counted, the number of nuclei of total cells was counted, and the number of fused nuclei was divided by the number of nuclei of the total cells to obtain the % value.
# C2C12 cells [3] = assay: Scratch experiment, degree of cell recovery; settings: C2C12, 1000 nM peptide, 1 day in proliferation medium
# Protocol: When the C2C12 cells were 100% grown, cells were scratches on the surface, treated with 1000 nM MIF1 or Ac-MIF1 peptides, and cultured for 1 day, followed by observation for a degree of cell recovery.
# C2C12 cells [4] = assay: Protein expression of myodifferentiation and sarcopenia factors (Western blot, immunocytochemistry); settings: C2C12 myodifferentiation, peptide-treated vs untreated
# Protocol: The medium of cultured C2C12 cells was removed and washed once with PBS. The washed cells were treated with 4% formaldehyde (Sigma), fixed for 15 minutes, then washed using PBS, added with 0.2% trypton X-100 (Sigma), and left for 5 minutes. After washing again using PBS, adding 1% normal goat serum, and leaving for 30 minutes, the primary antibody (MYOD, myogenin (MYOG):myosin light chain (MYL2); 1:50) was added to carry out a reaction at 4° C. for 14 hours. The antibodies were removed, washing was performed 3 times with PBS for 10 minutes, and then the cells were left with secondary antibody (Alexa Fluor 488 goat anti-Mouse & rabbit SFX kit t) for 1 hour. After 1 hour, the antibodies were removed, washing was performed with PBS for 10 minutes, the nuclei were stained with 4′,6-diamidino-2-phenylindol (DAPI), and the expression of the proteins was observed using fluorescence microscopy.
# (1) The medium of cultured C2C12 cells was removed, followed by washing with PBS. After adding LIPA buffer and protease inhibitor to the washed cells, the proteins included in the supernatant were collected after centrifugation for 10 minutes at 12000 rpm. 40 μg of the extracted proteins were subjected to electrophoresis in 8 to 10% acrylamide gel and then transferred to a polyvinylidene fluoride (PVDF) membrane (Milipore). These were blocked with 3% skim milk or bovine serum albumin (BSA) at room temperature for 1 hour. Afterwards, primary antibody diluted in 1% skim milk or BSA (Pax7; 1:500, MYOD; 1:500, MYOG; 1:400, MYL2; 1:1000, MYH; 1:500, MSTN; 1:1000, β-actin; 1:1000, MuRF1; 1:400, and Atrogin; 1:1:400) was added and reacted at 4° C. for over 16 hours. After 16 hours, cells were washed three times with TBST (Tris-buffered saline with Tween 20) and reacted with secondary antibody with horseradish peroxidase (HRP) conjugated at room temperature for 1 hour. It was washed three times with TBST and developed after adding Super Signal West Pico Chemiluminescent Substrate.
# C2C12 cells [5] = assay: mRNA expression of myodifferentiation and sarcopenia factors (real-time PCR); settings: C2C12 myodifferentiation, peptide-treated vs untreated
# Protocol: After adding 1 ml of TRIzol™ reagent, the cells were crushed using a sonicator. After centrifugation of the crushed sample (12,000 rpm, 10 min, 4° C.), the supernatant was transferred to a new tube, added with 200 μl of chloroform, and left at room temperature for 10 minutes. After 10 minutes, centrifugation (12,000 rpm, 10 min, 4° C.) was performed, yielded a transparent supernatant. Next, 500 μl of isopropanol was added, the mixture was left for 10 minutes, and centrifugation was performed to obtain RNA pellets. After washing by adding 70% ethanol (distilled water treated with ethanol+diethylpyrocarbonate (hereinafter referred to as DEPC)) to the RNA pellets, complete removal and drying were followed. The dried transparent RNA was added with DEPC-treated distilled water and then stored at −80° C. Total RNA volume was measured by nanodrop, and the 18s and 28s bands were detected in 1.2% agarose gel. cDNA was synthesized with 2 μg of total RNA, random hexamer primers, and reverse transcriptase (25° C.: 10 min, 37° C.: 120 min, 85° C.: 5 min).
# Real-time PCR (RT-PCR) was performed for detecting gene expression. For observation of real-time gene expression, gene expression was analyzed using the Power SYBR Green PCR Master Mix, which includes fluorescent materials of SYBR green (7500 Real-time PCR system). The PCR primer was designed with Primer 3 software (http://frodo.wi.mit.edu) according to the nucleotide sequence secured from NCBI GenBank. PCR was performed 40 times at 95° C. for 10 minutes, again at 95° C. for 33 seconds, at gene primer temperature (tm) for 33 seconds, and at 72° C. for 33 seconds. Gene expression values were analyzed through the analysis of c(t) values obtained through real-time PCR analysis (fold change 2-^ΔΔCt formula). Setting the gene expression value of the untreated cells to 1, the gene expression value of the treated cells was calculated. In the analysis of gene c(t) values, normalization was conducted with the glyceraldehyde-3-phosphate dehydrogenase (GAPDH).
Substance,"cell proliferation, increase compared to cells without peptide treatment (C2C12 cells [1]; C2C12, peptide 1000 nM, 1 day, MTT, FIG. 4)","fusion index, increase compared to untreated cells (C2C12 cells [2]; C2C12, differentiation medium including peptide, 3 days)","scratch recovery degree, increase compared to untreated cells (C2C12 cells [3])",MSTN protein expression (C2C12 cells [4]),MYH protein expression (C2C12 cells [4]),MYL2 protein expression (C2C12 cells [4]),MYOD protein expression (C2C12 cells [4]),MYOG protein expression (C2C12 cells [4]),MuRF1 protein expression (C2C12 cells [4]),Atrogin1 mRNA expression (C2C12 cells [5]),MSTN mRNA expression (C2C12 cells [5]),MYH mRNA expression (C2C12 cells [5]),"proliferation of cells compared to untreated cells (C2C12 cells [1]; C2C12, MSTN protein in proliferation medium, FIG. 3)","differentiation of cells compared to untreated cells (C2C12 cells [2]; C2C12, MSTN protein in differentiation medium, FIG. 3)","root canal formation compared to untreated cells (C2C12 cells [2]; C2C12, differentiation medium, 3 days)"
VDFEAFWDWG [MIF1],11%,4%,22%,increased,increased,increased,increased,increased,decreased,decreased,decreased,increased,,,
MSTN protein: myostatin protein that inhibits the proliferation and differentiation of myoblasts [reference compound],,,,,,,,,,,,,reduced,reduced,reduced
